Test results taken from ChEMBL document CHEMBL4725268, “Anticonvulsant and analgesic in neuropathic pain activity in a group of new aminoalkanol derivatives” (Bioorg Med Chem Lett, 2020).
Calls of active or inactive are those of the source.

Legend:
[1] = Protection index, ratio of TD50 for toxicity in ip dosed mouse to ED50 for anticonvulsant activity in ip dosed mouse; assay type: organism-based; details: in vivo, read-out: PI
[2] = Toxicity in ip dosed mouse assessed as motor impairment by rotarod test; assay type: organism-based; details: in vivo
Mus musculus [3] = experiment: Anticonvulsant activity in ip dosed mouse assessed as protection against current-induced seizure by maximal electroshock seizure test; assay type: functional
[4] = Toxicity in mouse assessed as lethality at 50 mg/kg, ip; assay type: organism-based; details: in vivo
[5] = Toxicity in mouse assessed as lethality at 30 mg/kg, ip; assay type: organism-based; details: in vivo
Salmonella enterica = experiment: Antimicrobial activity against Salmonella enterica ATCC 51957 assessed as reduction in bacterial growth at 0.195 to 100 ug/ml by serial dilution method; assay type: organism-based; details: in vivo, dose 0.195-100 µg/ml
Enterococcus faecalis = experiment: Antimicrobial activity against Enterococcus faecalis ATCC 29212 assessed as reduction in bacterial growth at 0.195 to 100 ug/ml by serial dilution method; assay type: organism-based; details: in vivo, dose 0.195-100 µg/ml
in vitro [6] = details: mouse, microsomes
Description: Metabolic stability in mouse microsome assessed as intrinsic clearance

Bacteroides fragilis = experiment: Antimicrobial activity against Bacteroides fragilis ATCC 25285 assessed as reduction in bacterial growth at 0.195 to 100 ug/ml by disk diffusion method; assay type: organism-based; details: in vivo, dose 0.195-100 µg/ml
Mus musculus [7] = experiment: Antiallodynic activity in mouse model of OXA-induced peripheral neuropathy assessed as mean latency time to nocifensive response at 18 mg/kg, ip administered after 3 hrs of OXA stimulation and measured after 1 hr by cold plate method (reference value: 59.76 +/- 0.16 sec); assay type: functional
Hoylesella loescheii = experiment: Antimicrobial activity against Prevotella loescheii ATCC 15930 assessed as reduction in bacterial growth at 0.195 to 100 ug/ml by disk diffusion method; assay type: organism-based, DSM 19665 = JCM 12249 = ATCC 15930; details: in vivo, dose 0.195-100 µg/ml
[8] = Drug metabolism in mouse microsome assessed as formation of monohydroxylated metabolite; assay type: ADME; details: microsomes
Clostridioides difficile = experiment: Antimicrobial activity against clinical strain Clostridium difficile assessed as reduction in bacterial growth at 0.195 to 100 ug/ml by disk diffusion method; assay type: organism-based; details: in vivo, dose 0.195-100 µg/ml
Escherichia coli [9] = experiment: Antimicrobial activity against Escherichia coli ATCC 25922 assessed as reduction in bacterial growth at 0.195 to 100 ug/ml by serial dilution method; assay type: organism-based; details: in vivo, dose 0.195-100 µg/ml
Mus musculus [10] = experiment: Antiallodynic activity in mouse model of OXA-induced peripheral neuropathy assessed as mean paw withdrawal threshold at 18 mg/kg, ip administered after 3 hrs of OXA stimulation and measured after 1 hr by Von-frey method (reference value: 3.144 +/- 0.169 g); assay type: functional
[11] = Antioxidant activity assessed as DPPH radical scavenging activity at 125 to 1000 uM by microplate method; assay type: functional; details: dose microM 125-1000
[12] = Toxicity in mouse assessed as lethality at 10 mg/kg, ip; assay type: organism-based; details: in vivo
Escherichia coli [13] = experiment: Antimicrobial activity against Escherichia coli ATCC 35218 assessed as reduction in bacterial growth at 0.195 to 100 ug/ml by serial dilution method; assay type: organism-based; details: in vivo, dose 0.195-100 µg/ml
in vitro [14] = details: mouse, microsomes; remark: listed apart in the source
Description: Metabolic stability in mouse microsome assessed as half life

Staphylococcus aureus [15] = experiment: Antimicrobial activity against Staphylococcus aureus ATCC 25923 assessed as reduction in bacterial growth at 0.195 to 100 ug/ml by serial dilution method; assay type: organism-based; details: in vivo, dose 0.195-100 µg/ml
Mus musculus [16] = experiment: Antiallodynic activity in mouse model of OXA-induced peripheral neuropathy assessed as mean paw withdrawal threshold at 18 mg/kg, ip administered after 7 days of OXA stimulation and measured after 1 hr by Von-frey method (reference value: 3.192 +/- 0.181 g); assay type: functional
Mus musculus [17] = experiment: Antiallodynic activity in mouse model of OXA-induced peripheral neuropathy assessed as mean latency time to nocifensive response at 18 mg/kg, ip administered after 7 days of OXA stimulation and measured after 1 hr by cold plate method (reference value: 57.64 +/- 1.267 sec); assay type: functional
[18] = Antimicrobial activity against clinical strain Bifidobacterium assessed as reduction in bacterial growth at 0.195 to 100 ug/ml by disk diffusion method; details: dose 0.195-100 µg/ml
Staphylococcus aureus [19] = experiment: Antimicrobial activity against clinical strain Staphylococcus aureus assessed as reduction in bacterial growth at 0.195 to 100 ug/ml by serial dilution method; assay type: organism-based; details: in vivo, dose 0.195-100 µg/ml
[20] = molecular target: T1, 5-hydroxytryptamine receptor 1A (Homo sapiens, UniProt P08908); experiment: Binding affinity to 5-HT1A (unknown origin)
T1 sequence (P08908 whole entry): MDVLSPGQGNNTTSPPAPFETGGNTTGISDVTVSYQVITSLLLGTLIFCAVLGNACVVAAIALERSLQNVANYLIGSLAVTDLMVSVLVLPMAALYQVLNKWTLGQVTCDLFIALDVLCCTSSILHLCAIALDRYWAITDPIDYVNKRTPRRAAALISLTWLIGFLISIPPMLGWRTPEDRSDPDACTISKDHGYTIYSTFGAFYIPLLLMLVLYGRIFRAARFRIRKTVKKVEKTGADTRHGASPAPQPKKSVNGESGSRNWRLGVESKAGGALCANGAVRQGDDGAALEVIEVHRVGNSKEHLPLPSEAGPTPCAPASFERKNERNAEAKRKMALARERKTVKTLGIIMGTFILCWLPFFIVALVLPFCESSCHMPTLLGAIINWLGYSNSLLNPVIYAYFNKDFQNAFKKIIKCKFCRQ

Mus musculus [21] = experiment: Anticonvulsant activity in ip dosed albino mouse assessed as protection against 50 mA current-induced seizure by maximal electroshock seizure test; assay type: functional

## O=C1NC(=O)C(c2ccccc2)(c2ccccc2)N1 [PHENYTOIN]
[1]
  selectivity ratio: 8.56

## CC[C@@H](CO)NCCOCCOc1ccc(C)cc1C.Cl
[1]
  selectivity ratio: 2.33
[2]
  TD50: 94.4 mg/kg
Mus musculus [3]
  ED50: 40.5 mg/kg

## Cc1ccc(OCCCN2CCC(O)CC2)c(C)c1
[4]
  Activity: Non-Toxic

## Cc1cc(C)c(OCCCN[C@H]2CC[C@H](O)CC2)c(C)c1
[5]
  Activity: Toxic

## Cc1cc(C)c(OCCCN2CCCC(O)C2)c(C)c1.Cl (racemic)
Salmonella enterica
  Activity: Non-Toxic
Enterococcus faecalis
  Activity: Non-Toxic
In vitro [6]
  microsomal CLint: 44.5 µL/min/mg
Bacteroides fragilis
  Activity: Non-Toxic
Mus musculus [7]
  Time: 18.18 s
Hoylesella loescheii
  Activity: Non-Toxic
[8]
  Drug metabolism: Metabolite_Detected
[1]
  selectivity ratio: 3.86
Clostridioides difficile
  Activity: Non-Toxic
Escherichia coli [9]
  Activity: Non-Toxic
Mus musculus [10]
  Activity: 1.958 g
[11]
  Activity: inactive
[12]
  Activity: Non-Toxic
Escherichia coli [13]
  Activity: Non-Toxic
In vitro [14]
  half-life: 38.9 min
Staphylococcus aureus [15]
  Activity: Non-Toxic
[5]
  Activity: Non-Toxic
Mus musculus [16]
  Activity: 1.947 g
Mus musculus [17]
  Time: 10.65 s
[18]
  Activity: Non-Toxic
Staphylococcus aureus [19]
  Activity: Non-Toxic
[20]
  Ki: 3.39 µM
[2]
  TD50: 70.2 mg/kg
Mus musculus [3]
  ED50: 18.2 mg/kg

## CC(C)NC[C@H](O)COc1cccc2ccccc12 [LEVOPROPRANOLOL]
Mus musculus [21]
  ED50: 19.2 mg/kg
